Bounds are passed on as bounds.

This experiment deals with T1, RORγ (Homo sapiens, UniProt P51449).
T1 construct: expressed in transfected cells; host or cells: 293FT cells (Invitrogen), expression vector pFN26A (Promega)
T1 sequence (P51449 269-508 limits assumed): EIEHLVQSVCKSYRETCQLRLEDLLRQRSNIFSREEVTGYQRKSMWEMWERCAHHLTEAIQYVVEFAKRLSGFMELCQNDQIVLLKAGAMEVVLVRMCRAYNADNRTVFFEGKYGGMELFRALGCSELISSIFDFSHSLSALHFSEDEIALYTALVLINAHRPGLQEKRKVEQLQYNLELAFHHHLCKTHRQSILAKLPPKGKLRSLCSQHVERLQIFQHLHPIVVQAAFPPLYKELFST
Description: RORγ GAL4 reporter gene assay (luciferase readout). The experiment is classed as cell-based. The settings on record: inhibition of RORγ (GAL4-RORγ-LBD) in 293FT cells, luciferase signal; read-out: mean pIC50 (converted). Here is the method:
Example inhibitors 1-38 were tested for their ability to inhibit RORγ activity in a RORγ GAL4 reporter gene assay. The assay procedure and results are described below.
A GAL4 one-hybrid reporter system employing luciferase readout was established to determine inhibition of RORγ in 293FT cells. The RORγ ligand-binding domain (LBD) was fused to the yeast GAL4 DNA binding domain (DBD) and placed under the control of the human cytomegalovirus (CMV) immediate early promoter, using expression vector pFN26A (Promega) and standard recombinant DNA cloning methods. To serve as a control in the assay, a similar vector was generated in which the GAL4-DBD was fused to Herpes simplex virus protein 16 (VP16), a constitutive transcriptional activator.
To monitor the inhibitory effect of compounds on RORγ, a transcriptional reporter construct was used. The pGL4.35 vector (Promega) contains nine copies of the GAL4 Upstream Activator Sequence (UAS). This sequence drives the transcription of the luciferase reporter gene luc2P in response to binding of a fusion protein containing the GAL4 DNA binding domain, as for example expressed by the GAL4-RORγ-LBD and GAL4-VP16 expression vectors described above. To allow a GAL4 fusion protein to drive the expression of the luciferase reporter, the pGL4.35 expression vector and the appropriate GAL4 fusion protein expression vector were bulk transfected in the 293FT cells using standard transfection techniques.
The day after transfection, cells were plated into 96 well plates, test compound was added and the plates were incubated overnight. Subsequently, the firefly luciferase activity was quantified using luciferase detection reagent and luminescence readout.
293FT cells (Invitrogen) were transfected with a GAL4 fusion protein expression vector (as described above) and the transcriptional reporter construct (pGL4.35, Promega). 60 μL of TransIT-293 transfection reagent (Mirus Bio) was added drop wise to 1500 μl Opti-MEM I Reduced Serum Medium (Invitrogen) and incubated at RT (RT) for 5 to 20 minutes. 1500 μL of this reagent mixture was added to 5 μg of GAL4 fusion protein expression vector and 5 μg of the transcriptional reporter construct, and incubated at RT for 20 minutes.
To harvest 293FT cells from a T75 flask, first the culture medium was taken off the cells. Subsequently, the cells were washed with Phosphate Buffered Saline (PBS) (Lonza), after which the PBS was removed. To dissociate the cells, 1 ml of TrypLE Express (Invitrogen) was added to the flask, followed by incubation at RT until the cells visually started to detach. Cells were collected in 5 mL of assay medium (DMEM culture medium (Lonza), 10% dialyzed FBS (Invitrogen) and Pen/Strep (Lonza)) to achieve a single cell suspension. 10×10^6 cells were spun down and re-suspended in 10 mL of assay medium. Subsequently, the cell suspension was added to the transfection mix tube, and then transferred as a whole to a T75 flask (Greiner), followed by overnight (16-24 hours) incubation at 37° C. and 5% CO2.
For compound screening, the cells were harvested (as described above) and counted. 13×10^6 cells were spun down, the supernatant was aspirated and the cells were re-suspended in 17.3 mL of assay medium obtaining a cell suspension of 0.75×10^6 cells/mL. 80 μL of cell suspension (60,000 cells) was plated per well into a white, flat bottom, tissue culture treated, 96 well screening plates (Greiner).
Test compounds were diluted, starting from a 10 mM dimethylsulfoxide (DMSO) stock solution, to serial dilutions in DMSO at 500× the final test concentration. Subsequently, these solutions were diluted to 5× the final test concentration in two 10-fold-dilution steps in assay medium. The final DMSO concentration of the 5× test compound solution was 1%. 20 μL of the 5× test compound solution was added to each test well of the 96 well plate previously plated with 80 μl cell suspension, resulting in the final test concentration with 0.2% DMSO. […]
Background: Reporter assays use an easily measured gene product as a stand-in for the process of interest.
As to `CCC(O)(c1ccc(C(=O)NCc2ccc(S(=O)(=O)CC3CC3)cc2)cc1)C(F)(F)F` (racemic) [(+)-1, (+)-N-[[4-(cyclopropylmethylsulfonyl)phenyl]methyl]-4-[1-hydroxy-1-(trifluoromethyl)propyl]benzamide], the IC50 was no more than 100 nM. As for `CCC(O)(c1ccc(C(=O)NCc2ccc(S(=O)(=O)CC3CC3)cc2)cc1)C(F)(F)F` (racemic) [(−)-1, (−)-N-[[4-(cyclopropylmethylsulfonyl)phenyl]methyl]-4-[1-hydroxy-1-(trifluoromethyl)propyl]benzamide], the IC50 is no more than 1000 nM. As to `CCC(O)(c1ccc(C(=O)NCc2ccc(S(=O)(=O)CC3CC3)cc2)cc1)C(F)(F)F` (racemic) [Example 1, N-[[4-(cyclopropylmethylsulfonyl)phenyl]methyl]-4-[1-hydroxy-1-(trifluoromethyl)propyl]benzamide], the IC50 was no more than 100 nM. For the compound `CC(O)(c1ccc(C(=O)NCc2ccc(S(=O)(=O)CC3CC3)cc2)cc1)C(F)(F)F` (centres unmarked) [Example 2, N-[[4-(cyclopropylmethylsulfonyl)phenyl]methyl]-4-(2,2,2-trifluoro-1-hydroxy-1-methyl-ethyl)benzamide], the IC50 was no more than 1000 nM. With `CC(C)(O)c1ccc(C(=O)NCc2ccc(S(=O)(=O)CC3CC3)cc2)cc1` [Example 3, N-[[4-(cyclopropylmethylsulfonyl)phenyl]methyl]-4-(1-hydroxy-1-methyl-ethyl)benzamide], the IC50 was greater than 10000 nM. On to `O=C(NCc1ccc(S(=O)(=O)CC2CC2)cc1)c1ccc(C(O)(C(F)(F)F)C(F)(F)F)cc1` [Example 4, N-[[4-(cyclopropylmethylsulfonyl)phenyl]methyl]-4-[2,2,2-trifluoro-1-hydroxy-1-(trifluoromethyl)ethyl]benzamide], for which the IC50 was no more than 100 nM. Regarding `CCCC(O)(c1ccc(C(=O)NCc2ccc(S(=O)(=O)CC3CC3)cc2)cc1)C(F)(F)F` (centres unmarked) [Example 6, N-[[4-(cyclopropylmethylsulfonyl)phenyl]methyl]-4-[1-hydroxy-1-(trifluoromethyl)butyl]benzamide], the IC50 is no more than 100 nM. In the case of `CCCCC(O)(c1ccc(C(=O)NCc2ccc(S(=O)(=O)CC3CC3)cc2)cc1)C(F)(F)F` (centres unmarked) [Example 7, N-[[4-(cyclopropylmethylsulfonyl)phenyl]methyl]-4-[1-hydroxy-1-(trifluoromethyl)pentyl]benzamide], the IC50 was no more than 100 nM.

For the compound `CC(C)CC(O)(c1ccc(C(=O)NCc2ccc(S(=O)(=O)CC3CC3)cc2)cc1)C(F)(F)F` (centres unmarked) [Example 8, N-[[4-(cyclopropylmethylsulfonyl)phenyl]methyl]-4-[1-hydroxy-3-methyl-1-(trifluoromethyl)butyl]benzamide], the IC50 is no more than 100 nM. Consider `CC(C)(C)CC(O)(c1ccc(C(=O)NCc2ccc(S(=O)(=O)CC3CC3)cc2)cc1)C(F)(F)F` (centres unmarked) [Example 9, N-[[4-(cyclopropylmethylsulfonyl)phenyl]methyl]-4-[1-hydroxy-3,3-dimethyl-1-(trifluoromethyl)butyl]benzamide], for which the IC50 is no more than 100 nM. `CC(C)C(O)(c1ccc(C(=O)NCc2ccc(S(=O)(=O)CC3CC3)cc2)cc1)C(F)(F)F` (centres unmarked) [Example 10, N-[[4-(cyclopropylmethylsulfonyl)phenyl]methyl]-4-[1-hydroxy-2-methyl-1-(trifluoromethyl)propyl]benzamide]: the IC50 is no more than 100 nM.

As for `O=C(NCc1ccc(S(=O)(=O)CC2CC2)cc1)c1ccc(C(O)(C2CC2)C(F)(F)F)cc1` (centres unmarked) [Example 11, N-[[4-(cyclopropylmethylsulfonyl)phenyl]methyl]-4-(1-cyclopropyl-2,2,2-trifluoro-1-hydroxy-ethyl)benzamide], the IC50 was no more than 100 nM. In the case of `O=C(NCc1ccc(S(=O)(=O)CC2CC2)cc1)c1ccc(C(O)(C2CCCC2)C(F)(F)F)cc1` (centres unmarked) [Example 12, 4-(1-cyclopentyl-2,2,2-trifluoro-1-hydroxy-ethyl)-N-[[4-(cyclopropylmethylsulfonyl)phenyl]methyl]benzamide], the IC50 was no more than 100 nM.

Turning to `O=C(NCc1ccc(S(=O)(=O)CC2CC2)cc1)c1ccc(C(O)(c2ccccc2)C(F)(F)F)cc1` (centres unmarked) [Example 13, N-[[4-(cyclopropylmethylsulfonyl)phenyl]methyl]-4-(2,2,2-trifluoro-1-hydroxy-1-phenyl-ethyl)benzamide], the IC50 is no more than 1000 nM. As for `O=C(NCc1ccc(S(=O)(=O)CC2CC2)cc1)c1ccc(C(O)(Cc2ccccc2)C(F)(F)F)cc1` (centres unmarked) [Example 14, 4-(1-benzyl-2,2,2-trifluoro-1-hydroxy-ethyl)-N-[[4-(cyclopropylmethylsulfonyl)phenyl]methyl]benzamide], the figure is no more than 100 nM; as for `Cc1cc(C(=O)NCc2ccc(S(=O)(=O)CC3CC3)cc2)ccc1C(O)(C(F)(F)F)C(F)(F)F` [Example 15, N-[[4-(cyclopropylmethylsulfonyl)phenyl]methyl]-3-methyl-4-[2,2,2-trifluoro-1-hydroxy-1-(trifluoromethyl)ethyl]benzamide], no more than 100 nM. As for `CCC(O)(c1ccc(C(=O)NCc2ccc(S(=O)(=O)CC)cc2)cc1)C(F)(F)F` (centres unmarked) [Example 17, N-[(4-ethylsulfonylphenyl)methyl]-4-[1-hydroxy-1-(trifluoromethyl)propyl]benzamide], the figure is less than 10000 nM; as for `CCS(=O)(=O)c1ccc(CNC(=O)c2ccc(C(O)(CC(C)(C)C)C(F)(F)F)cc2)cc1` (centres unmarked) [Example 18, N-[(4-ethylsulfonylphenyl)methyl]-4-[1-hydroxy-3,3-dimethyl-1-(trifluoromethyl)butyl]benzamide], no more than 1000 nM.

Turning to `CCS(=O)(=O)c1ccc(CNC(=O)c2ccc(C(O)(C(F)(F)F)C(F)(F)F)cc2)cc1` [Example 19, N-[(4-ethylsulfonylphenyl)methyl]-4-[2,2,2-trifluoro-1-hydroxy-1-(trifluoromethyl)ethyl]benzamide], the IC50 was less than 10000 nM. For the compound `CCCCC(O)(c1ccc(C(=O)NCc2ccc(S(=O)(=O)NC3CC3)cc2)cc1)C(F)(F)F` (centres unmarked) [Example 20, N-[[4-(cyclopropylsulfamoyl)phenyl]methyl]-4-[1-hydroxy-1-(trifluoromethyl)pentyl]benzamide], the IC50 is no more than 1000 nM. As for `O=C(NCc1ccc(S(=O)(=O)NC2CC2)cc1)c1ccc(C(O)(C(F)(F)F)C(F)(F)F)cc1` [Example 21, N-[[4-(cyclopropylsulfamoyl)phenyl]methyl]-4-[2,2,2-trifluoro-1-hydroxy-1-(trifluoromethyl)ethyl]benzamide], the figure is no more than 1000 nM. `COC(c1ccc(C(=O)NCc2ccc(S(=O)(=O)CC3CC3)cc2)cc1)(C(F)(F)F)C(F)(F)F` [Example 22, N-[[4-(cyclopropylmethylsulfonyl)phenyl]methyl]-4-[2,2,2-trifluoro-1-methoxy-1-(trifluoromethyl)ethyl]benzamide]: the IC50 is no more than 100 nM. As for `CCOC(c1ccc(C(=O)NCc2ccc(S(=O)(=O)CC3CC3)cc2)cc1)(C(F)(F)F)C(F)(F)F` [Example 23, N-[[4-(cyclopropylmethylsulfonyl)phenyl]methyl]-4-[1-ethoxy-2,2,2-trifluoro-1-(trifluoromethyl)ethyl]benzamide], the figure is no more than 100 nM.

The values are drawn from patent publication US10556866B2, “ROR gamma (RORγ) modulators” (LEAD PHARMA HOLDING B.V., priority 2015, dated 2020).
